Test results as given in ChEMBL document CHEMBL1201862, “PubChem BioAssay data set” (2004).
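Protocol summary: plate cells (96-well), add compound at 5 concentrations, incubate 48 h, interpolate endpoints linearly. GI50: concentration for 50% inhibition of growth.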 The source made the active and inactive calls. No stated cut-off is given here; in the data, active = GI50 up to about 1.1 µM and inactive = higher.

What was measured:
Assay in all cases: growth of human tumour cells (NCI), 48 h
A498 = test system: A498
A549 = test system: A549
CCRF-CEM = test system: CCRF-CEM
EKVX = test system: EKVX
HCC 2998 = test system: HCC 2998
HCT-116 = test system: HCT-116
HL-60 = test system: HL-60
KM12 = test system: KM12
M14 = test system: M14
OVCAR-3 = test system: OVCAR-3
OVCAR-5 = test system: OVCAR-5
RPMI-8226 = test system: RPMI-8226
SK-MEL-5 = test system: SK-MEL-5
SN12C = test system: SN12C
SNB-75 = test system: SNB-75
UACC-257 = test system: UACC-257
UACC-62 = test system: UACC-62
RXF 393 = test system: RXF 393

Measured: GI50

O=C1c2ccccc2C2(O)Oc3cccc(O)c3C12O (stereo not given)
inactive: A498 > 100 µM | A549 > 100 µM | CCRF-CEM > 100 µM | EKVX > 100 µM | HCC 2998 > 100 µM | HCT-116 > 100 µM | HL-60 > 100 µM | KM12 > 100 µM | M14 > 100 µM | OVCAR-3 > 100 µM | OVCAR-5 > 100 µM | RPMI-8226 > 100 µM | SK-MEL-5 > 100 µM | SN12C > 100 µM | SNB-75 > 100 µM | UACC-257 > 100 µM | UACC-62 62.5 µM

COc1ccccc1NC(=O)C(=O)C(c1cnc2ccc([N+](=O)[O-])cc2n1)[N+](=O)[O-] (stereo not given)
inactive: A498 > 100 µM | A549 > 100 µM | CCRF-CEM 26 µM | EKVX > 100 µM | HCC 2998 92 µM | HCT-116 > 100 µM | HL-60 19.5 µM | KM12 > 100 µM | M14 78.7 µM | OVCAR-5 > 100 µM | RPMI-8226 25.2 µM | RXF 393 > 100 µM | SK-MEL-5 > 100 µM | SN12C > 100 µM | SNB-75 > 100 µM | UACC-257 > 100 µM | UACC-62 53 µM

O=C(Nc1cc(Cl)c(Cl)cc1Cl)C(=O)C(C(=O)c1ccc2ccccc2c1)C1OC(=O)c2ccccc21 (stereo not given)
inactive: A498 12 µM | A549 19.1 µM | EKVX 15.4 µM | HCT-116 11 µM | HL-60 13.2 µM | KM12 14.6 µM | M14 21.8 µM | OVCAR-3 16.3 µM | OVCAR-5 16.5 µM | RPMI-8226 11.9 µM | RXF 393 3.95 µM | SK-MEL-5 11.8 µM | SN12C 18.2 µM | UACC-257 14.4 µM | UACC-62 12.1 µM

N=C(N)NS(=O)(=O)c1ccc(Nc2c3ccccc3nc3c(C(=O)N4CCN(CCO)CC4)cccc23)cc1
inactive: A498 > 100 µM | A549 > 100 µM | CCRF-CEM > 100 µM | EKVX > 100 µM | HCC 2998 > 100 µM | HCT-116 > 100 µM | HL-60 > 100 µM | KM12 > 100 µM | M14 > 100 µM | OVCAR-3 > 100 µM | OVCAR-5 > 100 µM | RXF 393 > 100 µM | SK-MEL-5 > 100 µM | SN12C > 100 µM | SNB-75 > 100 µM | UACC-257 > 100 µM | UACC-62 > 100 µM

CCCCNC(=O)C1C2CCC(O2)C1C(=O)O (stereo not given)
inactive: A498 12.7 µM | A549 31 µM | EKVX 13.7 µM | HCC 2998 26.2 µM | HCT-116 12 µM | KM12 56.2 µM | M14 14.2 µM | OVCAR-3 16 µM | OVCAR-5 > 100 µM | RPMI-8226 20.9 µM | RXF 393 2.07 µM | SK-MEL-5 20.2 µM | SN12C 14 µM | SNB-75 16.8 µM | UACC-257 22.8 µM | UACC-62 17.5 µM

COc1ccc2oc(C(=O)O)c3c2c1CCC3CCC(=O)O (stereo not given)
inactive: A498 > 100 µM | A549 > 100 µM | CCRF-CEM > 100 µM | EKVX > 100 µM | HCC 2998 > 100 µM | HCT-116 > 100 µM | HL-60 > 100 µM | KM12 > 100 µM | OVCAR-5 > 100 µM | RPMI-8226 > 100 µM | RXF 393 > 100 µM | SK-MEL-5 > 100 µM | SN12C > 100 µM | SNB-75 > 100 µM | UACC-257 > 100 µM | UACC-62 > 100 µM

COc1ccccc1NC(=O)c1nc2ccc([N+](=O)[O-])cc2nc1C
inactive: A498 > 100 µM | A549 > 100 µM | CCRF-CEM > 100 µM | EKVX > 100 µM | HCC 2998 > 100 µM | HCT-116 > 100 µM | KM12 > 100 µM | M14 > 100 µM | OVCAR-3 > 100 µM | OVCAR-5 > 100 µM | RPMI-8226 > 100 µM | SK-MEL-5 > 100 µM | SN12C > 100 µM | SNB-75 65.3 µM | UACC-257 > 100 µM | UACC-62 > 100 µM

COc1ccc2nc3cc(Cl)ccc3c(NCCC(=O)OCC(O)C(O)C(O[C@H](C)C(=O)NC(C)C(=O)NC(CCC(N)=O)C(=O)OCc3ccccc3)C(C=O)NC(C)=O)c2c1 (stereo not given in full)
inactive: A498 21 µM | A549 17.4 µM | CCRF-CEM 23.2 µM | EKVX 18.4 µM | HCC 2998 17.7 µM | HCT-116 18 µM | HL-60 25.1 µM | KM12 19.1 µM | M14 19.5 µM | OVCAR-3 19.2 µM | OVCAR-5 23.8 µM | SK-MEL-5 16.6 µM | SN12C 16.1 µM | SNB-75 16.1 µM | UACC-257 95.7 µM | UACC-62 17.9 µM
